Test results as given in patent US20220242870A1, “HETEROCYCLE-FUSED PYRIMIDINE DERIVATIVE AND USE THEREOF” (VORONOI Inc., priority 2019, published 2022).

Tests used:
human FLT3-ITD enzyme = biological target: T1, human FLT3-ITD enzyme (Homo sapiens, UniProt P36888); experiment: FLT3 enzyme inhibitory ability (ADP-Glo kinase assay); assay type: biochemical; details: human FLT3-ITD enzyme 10 ng, ATP 10 μM, 25° C. 1 hour
T1 sequence (P36888 1-993): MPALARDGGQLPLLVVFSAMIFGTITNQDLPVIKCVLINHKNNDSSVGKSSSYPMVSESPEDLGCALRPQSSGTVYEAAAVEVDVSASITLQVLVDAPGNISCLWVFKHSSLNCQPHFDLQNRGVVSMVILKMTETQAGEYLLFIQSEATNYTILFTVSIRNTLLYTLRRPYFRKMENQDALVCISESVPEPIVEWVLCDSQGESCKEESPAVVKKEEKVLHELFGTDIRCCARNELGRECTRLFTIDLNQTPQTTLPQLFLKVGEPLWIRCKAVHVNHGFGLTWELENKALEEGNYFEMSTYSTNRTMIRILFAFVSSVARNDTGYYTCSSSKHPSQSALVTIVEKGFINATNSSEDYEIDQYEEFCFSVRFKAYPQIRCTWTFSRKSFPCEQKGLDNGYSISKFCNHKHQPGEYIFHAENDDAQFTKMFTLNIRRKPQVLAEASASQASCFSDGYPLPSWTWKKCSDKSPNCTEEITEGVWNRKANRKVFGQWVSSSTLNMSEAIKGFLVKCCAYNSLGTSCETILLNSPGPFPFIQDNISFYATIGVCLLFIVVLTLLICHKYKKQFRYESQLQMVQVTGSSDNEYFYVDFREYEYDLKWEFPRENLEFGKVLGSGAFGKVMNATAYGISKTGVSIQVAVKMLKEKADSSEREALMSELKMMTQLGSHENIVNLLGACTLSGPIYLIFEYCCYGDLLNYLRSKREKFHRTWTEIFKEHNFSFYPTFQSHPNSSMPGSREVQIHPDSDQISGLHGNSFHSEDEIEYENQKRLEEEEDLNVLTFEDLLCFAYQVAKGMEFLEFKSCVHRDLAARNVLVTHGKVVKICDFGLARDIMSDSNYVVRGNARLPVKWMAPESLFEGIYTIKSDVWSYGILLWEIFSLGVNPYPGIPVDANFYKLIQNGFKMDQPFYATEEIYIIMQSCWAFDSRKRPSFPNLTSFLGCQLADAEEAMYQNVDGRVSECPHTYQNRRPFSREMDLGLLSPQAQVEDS
Description: The inhibitory activities of the example compounds according to the present invention to the FLT3-ITD enzyme were evaluated. Specifically, the compound of the present invention was reacted with a purified human FLT3-ITD enzyme (Signalchem). A composition of 40 mM Tris-HCl pH 7.4, 20 mM MgCl2, 0.5 mg/mL BSA and 50 μM DTT was used as a reaction buffer, and reactions of all test matters were performed on the reaction buffer. Upon the test, human FLT3-ITD enzyme (10 ng), purified ATP (10 μM) and a specific substrate solution were reacted at 25° C. for 1 hour, and then the enzyme activity was identified using an in vitro ADP-Glo™ kinase assay (Promega). The enzyme activity reaction solution, the ADP-Glo reaction solution and the enzyme ability detection solution were reacted in a ratio of 2:2:1, and the activity inhibition degree of the enzyme was measured as luminescence. Using the solvent-treated group that was not treated with the compound as a control group, the enzyme activity inhibition degree according to the treatment concentration of each compound was calculated based on the enzyme activity fluorescence degree, and the concentration of each compound that inhibited 50%, IC50 (nM), was determined using Prism Software (version 5.01, GraphPad).

human GST-HPK1 (1-346) = biological target: T2, human GST-HPK1 (1-346) (Homo sapiens, UniProt Q92918); experiment: HPK1 enzyme inhibitory ability (ADP-Glo kinase assay); assay type: biochemical; details: human GST-HPK1 3 ng, ATP 3 uM, 25° C. 2 hours
T2 construct: purified human GST-HPK1 (1-346, Signalchem) enzyme; purchased Signalchem
T2 sequence (Q92918 1-346): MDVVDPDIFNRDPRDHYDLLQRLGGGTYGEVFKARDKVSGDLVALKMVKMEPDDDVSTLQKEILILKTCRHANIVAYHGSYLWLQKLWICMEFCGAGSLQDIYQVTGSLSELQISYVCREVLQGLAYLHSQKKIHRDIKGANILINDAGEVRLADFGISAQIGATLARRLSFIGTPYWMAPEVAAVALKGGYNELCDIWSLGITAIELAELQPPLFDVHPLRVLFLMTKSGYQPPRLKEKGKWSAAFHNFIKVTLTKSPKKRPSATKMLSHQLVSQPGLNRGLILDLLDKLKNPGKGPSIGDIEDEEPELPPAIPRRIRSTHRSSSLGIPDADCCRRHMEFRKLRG
Description: In order to evaluate the inhibitory activities of the example compounds according to the present invention on the HPK1 (hematopoietic progenitor kinase 1) enzyme, the following experiment was performed. The example compounds were reacted with the purified human GST-HPK1 (1-346, Signalchem) enzyme to evaluate the enzyme inhibitory ability by the following method. As the reaction buffer, a composition of 40 mM Tris-HCl pH 7.4, 20 mM MgCl2, 0.5 mg/mL BSA and 50 uM DTT was used, and reactions of all test matters were performed on the reaction buffer. Upon the test, the human GST-HPK1 (3 ng) enzyme, the purified ATP (3 uM) and a specific substrate solution were reacted at 25° C. for 2 hours, and then the enzyme activity was identified using an in vitro ADP-Glo™ kinase assay (promega). The enzyme activity reaction solution, the ADP-Glo reaction solution and the enzyme ability detection solution were reacted in a ratio of 2:2:1 to measure luminescence. The enzyme activity inhibition degree according to the treatment concentrations of the respective compounds was calculated based on the fluorescence of the enzyme activity of the solvent control group that was not treated with the compound, where the concentration of each compound that inhibited enzyme activity inhibition by 50% was determined as an IC50 (nM) value.

MCF-7 cells = experiment: Breast cancer cell line proliferation inhibitory activity (CellTiter-Glo 2.0); assay type: cell-based; details: Homo sapiens, MCF7, 120 hours
Description: In order to evaluate the breast cancer cell line cell proliferation inhibitory activities of Examples according to the present invention, the following experiment was performed. Breast cancer cells of MCF-7 (Korean Cell Line Bank) were planted in a clear bottom white 96-well plate (Corning) so as to be 3×10^3/150 μl/well, and a culture solution comprising the compound continuously diluted in multiples of 3 at 12 concentrations (0.00001-2 mM) and a DMSO control group was added by 0.5 μl/well and treated so that the final concentration was 0.00005-10 μM, and then cultured in a 37° C. CO2 incubator for 120 hours. After 120 hours, the plate treated with the compound is taken out, and CellTiter-Glo® 2.0 Assay (Promega) solution is treated at 150 μl/well and then they mix well. They mix well at room temperature for 10 minutes or so, and the fluorescence is measured with a microplate reader. The data were expressed as a percentage in proportion to the vehicle standard treated cells, the GI50 (nM) values were calculated using GraphPad Prism 8.3.0 (GraphPad software Inc., San Diego), and the results were shown in Table 3 below.

Compound	IC50 (human FLT3-ITD enzyme) [nM]	IC50 (human GST-HPK1 (1-346)) [nM]	GI50 (MCF-7 cells) [nM]
OCCN1CC[C@@H](Oc2cc(Nc3nc(N4N=CCC4c4ccccc4)c4sccc4n3)cc(C3CC3)c2)C1 (stereo partly drawn) [Example 14, 2-((3R)-3-(3-cyclopropyl-5-((4-(5-phenyl-4,5-dihydro-1H-pyrazol-1-yl)thieno[3,2-d]pyrimidin-2-yl)amino)phenoxy)pyrrolidin-1-yl)ethan-1-ol]	> 500	> 500	> 500
COc1cc(Nc2nc(N3N=CCC3c3ccccc3)c3sccc3n2)cc(C(=O)N2CCN(CCO)CC2)c1 (centres unmarked) [Example 15, (4-(2-hydroxyethyl)piperazin-1-yl)(3-methoxy-5-((4-(5-phenyl-4,5-dihydro-1H-pyrazol-1-yl)thieno[3,2-d]pyrimidin-2-yl)amino)phenyl)methanone]	> 500	> 500	> 500
CN(C)[C@@H]1CCN(c2cccc(Nc3nc(N4N=CCC4c4ccccc4)c4sccc4n3)c2)C1 (stereo partly drawn) [Example 17, N-(3-((R)-3-(dimethylamino)pyrrolidin-1-yl)phenyl)-4-(5-phenyl-4,5-dihydro-1H-pyrazol-1-yl)thieno[3,2-d]pyrimidin-2-amine]	> 500	> 500	> 500
CN(C)[C@H]1CCN(c2cccc(Nc3nc(N4N=CCC4c4ccccc4)c4sccc4n3)c2)C1 (stereo partly drawn) [Example 18, N-(3-((S)-3-(dimethylamino)pyrrolidin-1-yl)phenyl)-4-(5-phenyl-4,5-dihydro-1H-pyrazol-1-yl)thieno[3,2-d]pyrimidin-2-amine]	> 500	> 500	> 500
COc1cc(Nc2nc(N3OCC[C@@H]3c3ccccc3)c3sccc3n2)ccc1N1CCC(N2CCN(C)CC2)CC1 [Example 58, (R)-N-(3-methoxy-4-(4-(4-methylpiperazin-1-yl)piperidin-1-yl)phenyl)-4-(3-phenylisoxazolidin-2-yl)thieno[3,2-d]pyrimidin-2-amine]	> 500	> 500	> 500
CN1CCN(c2ccc(Nc3nc(N4OCC[C@@H]4c4ccccc4)c4sccc4n3)cc2)CC1 [Example 60, (R)-N-(4-(4-methylpiperazin-1-yl)phenyl)-4-(3-phenylisoxazolidin-2-yl)thieno[3,2-d]pyrimidin-2-amine]	> 500	> 500	> 500
CN(C)[C@@H]1CCN(c2cccc(Nc3nc(N4OCC[C@H]4c4ccccc4)c4sccc4n3)c2)C1 [Example 61, N-(3-((R)-3-(dimethylamino)pyrrolidin-1-yl)phenyl)-4-((S)-3-phenylisoxazolidin-2-yl)thieno[3,2-d]pyrimidin-2-amine]	> 500	> 500	> 500
CN(C)[C@H]1CCN(c2cccc(Nc3nc(N4OCC[C@H]4c4ccccc4)c4sccc4n3)c2)C1 [Example 62, N-(3-((S)-3-(dimethylamino)pyrrolidin-1-yl)phenyl)-4-((S)-3-phenylisoxazolidin-2-yl)thieno[3,2-d]pyrimidin-2-amine]	> 500	> 500	> 500
CN(C)[C@@H]1CCN(c2cccc(Nc3nc(N4OCC[C@@H]4c4ccccc4)c4sccc4n3)c2)C1 [Example 63, N-(3-((R)-3-(dimethylamino)pyrrolidin-1-yl)phenyl)-4-((R)-3-phenylisoxazolidin-2-yl)thieno[3,2-d]pyrimidin-2-amine]	> 500	> 500	> 500
CN(C)[C@H]1CCN(c2cccc(Nc3nc(N4OCC[C@@H]4c4ccccc4)c4sccc4n3)c2)C1 [Example 64, N-(3-((S)-3-(dimethylamino)pyrrolidin-1-yl)phenyl)-4-((R)-3-phenylisoxazolidin-2-yl)thieno[3,2-d]pyrimidin-2-amine]	> 500	> 500	> 500
OCCN1CC[C@@H](Oc2cc(Nc3nc(N4OCC[C@H]4c4ccccc4)c4sccc4n3)cc(C3CC3)c2)C1 [Example 65, 2-((R)-3-(3-cyclopropyl-5-((4-((S)-3-phenylisoxazolidin-2-yl)thieno[3,2-d]pyrimidin-2-yl)amino)phenoxy)pyrrolidin-1-yl)ethan-1-ol]	> 500	> 500	> 500
COc1cc(Nc2nc(N3OCC[C@H]3c3ccccc3)c3sccc3n2)cc(C(=O)N2CCN(CCO)CC2)c1 [Example 66, (S)-(4-(2-hydroxyethyl)piperazin-1-yl)(3-methoxy-5-((4-(3-phenylisoxazolidin-2-yl)thieno[3,2-d]pyrimidin-2-yl)amino)phenyl)methanone]	> 500	> 500	> 500
COc1cc(Nc2nc(N3OCC[C@@H]3c3ccccc3)c3sccc3n2)cc(C(=O)N2CCN(CCO)CC2)c1 [Example 67, (R)-(4-(2-hydroxyethyl)piperazin-1-yl)(3-methoxy-5-((4-(3-phenylisoxazolidin-2-yl)thieno[3,2-d]pyrimidin-2-yl)amino)phenyl)methanone]	> 500	> 500	> 500
COc1cc(Nc2nc(N3OCC[C@H]3c3ccccc3)c3cc[nH]c3n2)cc(C(=O)N2CCN(CCO)CC2)c1 [Example 94, (S)-(4-(2-hydroxyethyl)piperazin-1-yl)(3-methoxy-5-((4-(3-phenylisoxazolidin-2-yl)-7H-pyrrolo[2,3-d]pyrimidin-2-yl)amino)phenyl)methanone]	> 500	> 500	–
